Results from patent US6664241B2, “Water-soluble amide derivatives of polyene macrolides and preparation and uses thereof” (Micrologix Biotech Inc., priority 2000, dated 2003).
In brackets after ≈: the same amount, converted by molar mass.

Columns and labels:
[1] = system: C. albicans; assay: Minimum Inhibitory Concentrations (MICs) against C. albicans, NCCLS M27-A broth dilution; assay type: cell-based; settings: Candida albicans, read-out: MIC
Method: For each compound synthesized, Minimum Inhibitory Concentrations (MICs) against C. albicans were determined as described in Reference Method for Broth Dilution Antifungal Susceptibility Testing of Yeasts, Approved Standard, NCCLS document M27-A (ISBN 1-56238-328-0), NCCLS, 940 West Valley Road, Suite 1400, Wayne, Pa. 19087, 1997.

[2] = system: C. albicans; assay: 5 day kidney bioburden evaluation in immunocompetent mice challenged with C. albicans; assay type: in vivo, Swiss-Webster mice; settings: for effective in % of mice: greater than 2 log10 reduction in kidney CFU
Method: (§1) A variety of the compounds synthesized as described in Section 5, supra, were tested in various in vivo assays, as described below. The results of the various assays are provided in TABLE 3, presented at the end of this section. In all of the in vivo assays described, the test compounds, in the form of the aspartate salts, were formulated in an aqueous vehicle (5% mannitol in sterile water; OSMITROL, Baxter Healthcare, Deerfield, Ill.), followed by appropriate dilutions. The formulations were prepared fresh before dosing.
(§2) AmB and AME were also tested for comparison. For AmB, the commercially available FUNGIZONE (Bristol-Meyers Squibb Co.) was used. Reported values are based upon the weight of the AmB active ingredient, not on the basis of the weight of the FUNGIZONE powder. AME was formulated in OSMITROL as described for the test compounds.
Various polyene macrolide amide derivatives of the invention were evaluated for their protective effect when administered intraperitoneally once daily for 5 days to immunocompetent mice challenged with live C. albicans.
C. albicans was grown on Sabouraud dextrose agar (SDA) plates for 48 hr. Colonies were harvested and washed twice by centrifugation in phosphate-buffered saline (PBS). The washed pellets were resuspended in PBS and diluted to achieve the desired number of fungi per milliliter. A portion of the inoculum was plated on SDA plates to determine the colony-forming units (CFU) per milliliter.
(§3) Swiss-Webster mice (Simonsen Laboratories, Gilroy, Calif.) were administered by intravenous injection a single inoculum (0.2 mL) containing as estimated 2.0×10^5 CFU of C. albicans. The day of inoculation was designated as study day 0. Beginning three days after injection, mice were treated intraperitoneally with vehicle alone or formulated test compound once daily for 5 consecutive days.
(§4) The mice were observed daily from study day 0 through study day 10 (3 days after the last dose). Mice found dead or euthanized in extremis were removed from the study without further processing. Surviving mice were euthanized by inhalation of CO2 on study day 10 and both kidneys from each mouse were removed. Each pair of removed kidneys was homogenized in 3 mL of ice-cold PBS containing 10% glycerol. A portion of each homogenate was used to determine log10 CFU per kidney using SDA plates (48 hours of incubation at 30° C.). Kidney log10 CFU data were analyzed using a t-test. The criterion for a statistically significant response was set at p<0.01.
(§5) For comparison, the results for AmB and AME are also provided. Efficacy was defined for individual animals as a greater than 2 log10 reduction in kidney CFU relative to the mean vehicle control value.

[3] = system: C. albicans; assay: 7 day kidney bioburden evaluation in neutropenic mice challenged with C. albicans; assay type: in vivo, Swiss-Webster mice; settings: Candida albicans, ip, 168 h, intraperitoneally once daily for 7 days, 50% of animals with 2 log10 reduction in kidney CFU
Method: as §1, §2
Various polyene macrolide amide derivatives of the invention were evaluated for their protective effect when administered intraperitoneally once daily for 7 days to neutropenic mice challenged with live C. albicans.
as §3, with “made neutropenic by intravenous administration of 5-fluorouracil (150 mg/kg) on study day −1. On study day 0, all mice received” for “administered”, “5.0×10^4” for “2.0×10^5”, “the day” for “three days”, “infection (on study day 1),” for “injection,”, “compound,” for “compound”, “7” for “5”
as §4, with “day 1” for “day 0”, “day 8 (1 day” for “day 10 (3 days”, “day 8” for “day 10”
as §5

[4] = Ascending single-dose nephrotoxicity study in rabbits; assay type: in vivo, Female New Zealand white rabbits; settings: female, New Zealand white, rabbit, in vivo, ascending single intravenous infusion doses, urine volume, BUN, creatinine, read-out: NOAEL acute rabbit
Method: as §1
AmB and AME were also tested for comparison. For AmB, the commercially available FUNGIZONE (Bristol-Meyers Squibb Co.) was used. […]
Various polyene macrolide amide derivatives of the invention were evaluated to determine the intravenous dose of administered compound that produces nephrotoxicity in rabbits. Nephrotoxicity was monitored by measuring urine volume and blood urine nitrogen (BUN) and creatinine. […]
Ascending single doses were administered by intravenous infusion into an ear vein at a rate of 0.6 mL/min. […] Body weights were recorded before each dose, as well as 2 days after the last dose. Blood samples were collected from the rabbits two days prior to the first dose (study day −2) and approximately 24 hr after each dose and analyzed for BUN and creatinine. […]

## C[C@@H]1[C@H](O)[C@@H](C)/C=C/C=C/C=C/C=C/C=C/C=C/C=C/[C@H](O[C@@H]2O[C@H](C)[C@@H](O)[C@H](N)[C@@H]2O)C[C@@H]2O[C@](O)(C[C@@H](O)C[C@@H](O)[C@H](O)CC[C@@H](O)C[C@@H](O)CC(=O)O[C@H]1C)C[C@H](O)[C@H]2C(=O)O [AMB, amphotericin B, reference compound]
[1]
  MIC: 0.125 to 0.25 µg/mL (≈ 0.135 to 0.271 µM)
[2]; 2 mg/kg/day intraperitoneally
  effective in % of mice: 20%
[2]; 4 mg/kg/day intraperitoneally
  effective in % of mice: 60%
[2]; 8 mg/kg/day intraperitoneally
  effective in % of mice: 100%
[2]; 16 mg/kg/day intraperitoneally
  effective in % of mice: 78%
[2]; Candida albicans, ip, 120 h, intraperitoneally once daily for 5 days, immunocompetent mice, C. albicans, 50% of animals with 2 log10 reduction in kidney CFU, read-out: ED50 mice 5 day
  ED50: 3 mg/kg
[2]; intraperitoneally, 5 day kidney bioburden model, calculated
  ED50: 3 mg/kg/day
[3]
  ED50: 0.3 mg/kg
[4]
  NOAEL: 0.375 mg/kg
